The record followed here is a melting point compilation (Tetko et al.; mined from patent text by program, amines drawn as free bases though some values may be those of a salt).

Bounds are passed on as bounds.

As usually defined, the melting point is the temperature, or range, at which the solid turns liquid. `COc1ccc2c(ccc3c4ccc(OC)cc4c(=O)n(-c4ccc(O[Si](C)(C)C(C)(C)C)cc4)c23)c1` showed a melting point of 211 to 213 °C.

The compound `CC(C)(C)[Si](C)(C)OCCc1c(N)nc(SCc2ccc3ccccc3c2)nc1O` returned a melting point of 156 to 158 °C.

`O=C(O)C1=C(c2ccc3c(c2)OCO3)c2ccccc2S(=O)(=O)N1Cc1ccc2c(c1)OCO2` yielded a melting point of 229 to 230 °C.

Compound `COc1ccccc1N1C=C(C(Cl)(Cl)Cl)CN(C(Cl)(Cl)Cl)N1` returned a melting point of 93 to 95 °C.

For the compound `Cc1nccn1-c1nc(-c2ccc(Cl)cc2)c(CCCOc2ccccc2CCCO)o1`, the melting point was 119 to 120 °C.

As to `O=C(NC1CCN(c2ccccc2)C1)c1ccc([N+](=O)[O-])cc1` (stereo not drawn), the melting point is 153 to 155 °C.

On to `CCOC(=O)C(=CNc1nonc1C)C(=O)c1cc(F)c(F)c(F)c1F`, for which the melting point is 88 to 92 °C.

`CS(=O)(=O)N1CCN([C@@H](CNS(=O)(=O)c2ccc(OCc3ccc(C#N)cc3)cc2)C(=O)NO)CC1` displayed a melting point of 108 °C.

Consider `O=C(O)C1C2CCC(O2)C1C(=O)NCCN1C(=O)NC(c2ccccc2)(c2ccccc2)C1=O` (stereo not drawn), for which the melting point fell in the range of 208 to 210 °C.

Regarding `O=P1(c2ccc(F)cc2)c2ccccc2CN1c1ccccc1` (stereo not drawn), the melting point is 119 to 120 °C.

`CCC(=O)OCCOCn1cnc2c(=O)[nH]c(N)nc21` showed a melting point of 223 to 226 °C.

Turning to `CN1CCN(C(=O)c2ccc3c([N+](=O)[O-])c(O)c(O)cc3c2)CC1`, the melting point was above 360 °C.

The compound `CC(=O)c1ccc(C2(O)CC(C)(C)CC(C)(C)C2)cc1` gave a melting point of 135 °C.

`CC(C)OP(=O)(/C=C/CCn1cnc2c(N)nc(N)nc21)OC(C)C` displayed a melting point of 211 to 213 °C.

On to `O=c1[nH]c2cc(Cl)ccc2c(=O)c2c(C(F)(F)F)n[nH]c12`, for which the melting point is 334 to 336 °C.

For `COc1cc(NC(NC(C)C(C)(C)C)=C(C#N)S(C)(=O)=O)cc(C(F)(F)F)c1` (stereo not drawn), the melting point lay within 110 to 113 °C.

As to `Nc1ccc2[nH]c(=O)cc(CCN3CCC(c4c[nH]c5ccccc45)CC3)c2c1`, the melting point was 214 to 216 °C.

Consider `[N-]=[N+]=NCCOc1ccc(F)c2c1CC(=O)N2`, for which the melting point was in the range of 147 to 148 °C.

`O=C(O)c1cc2cc(F)c(Cl)cc2nc1Cl` yielded a melting point of 230 °C.

For the compound `CCCC(CCC)C(=O)NC1CCc2ccccc21` (stereo not drawn), the melting point fell in the range of 133 to 134 °C.

`COc1ccc(-c2coc3ccc(-c4nnc(SCc5cccc(C)c5)o4)cc23)cc1` showed a melting point of 123 to 124 °C.

Consider `Fc1ccccc1-c1ccc2nnn(Cc3ccc4ncccc4c3)c2n1`, for which the melting point lay in the range of 164 to 166 °C.

Consider `COC(=O)c1ccccc1S(=O)(=O)Nn1c(SC)nn(-c2nc(OC)cc(OC)n2)c1=O`, for which the melting point stood at 179 °C.

`Cc1ccc2c(c1NC(=O)NCC1(c3ccccc3)CCCC1)OC(C)(C)C2` came in with a melting point of 186 °C.

For `C#CCN1C(=O)COc2ccc(-n3c(OC)nc(C(F)(F)F)cc3=O)cc21`, the melting point is 218 to 220 °C.

`OCCCOc1cc(-c2ccccc2)cc(-c2ccccc2)n1` yielded a melting point of 94 °C.

`Cn1nnnc1C(CBr)=C(c1ccc(F)cc1)c1ccc(F)cc1`: the melting point was in the range of 159 to 160 °C.

Compound `COc1ccc(CCN(C)CCCC2(c3ccc(OC)c(OC)c3)S(=O)(=O)CCCS2(=O)=O)cc1OC` yielded a melting point of 144 °C.

Take `c1ccc(C(c2ccccc2)(c2ccccc2)N2CCCCC2)cc1`: the melting point was 156 to 158 °C.

Turning to `CCCOc1cccc(-c2nn(C(C)c3oc4ccccc4c(=O)c3-c3cccc(F)c3)c3ncnc(N)c23)c1` (stereo not drawn), the melting point lay within 178 to 182 °C.

In turn, `CCS(=O)(=O)Nc1cc(-n2nc3n(c2=O)CCCS3)c(F)cc1C#N` gave a melting point of 193 to 195 °C.

As for `O=C(Cc1cncs1)c1ccc(Cl)cc1Cl`, the melting point is 75 to 77 °C.

As for `CCOC(=O)c1ncn2c1CN(C)C(=O)c1c-2cccc1[N+](=O)[O-]`, the melting point fell in the range of 212 to 213 °C.
